The values below come from PubChem BioAssay (NCI).

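Each compound was tested at five concentrations against cells in 96-well plates for 48 hours. GI50: concentration for 50% inhibition of growth. TGI is the concentration that stops growth completely.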 Where only a bound is given, the exact number is not on record here.

Holding throughout (test): inhibition of tumour cell growth, NCI panel, 48 h
In assay [1] the test system is SF-268 CNS.
Assay [2] deals with OVCAR-8 ovarian.
The subject of assay [3] is K-562 leukemia.
The subject of assay [4] is SK-MEL-5 melanoma.
The subject of assay [5] is RXF 393 renal.
The subject of assay [6] is KM12 colon.
Assay [7] relates to NCI-H522 lung.
Assay [8] has as its system OVCAR-4 ovarian.
Assay [9] has as its system LOX IMVI melanoma.
In assay [10] the test system is COLO 205 colon.

As to `O=[N+]([O-])/C=C/c1cc2ccc3ccccc3c2[nH]1`, the TGI in [1] was 4.02 µM; in [2] it was over 21 µM; in [3] it was 18.2 µM; in assay [4], 3.26 µM; in assay [5], 2.96 µM; in assay [6] it was 3.99 µM. The TGI is 2.4 µM in [7], 4.95 µM in assay [8], 2420 nM in assay [9] and 4.29 µM in assay [10].

On to `COc1cc2c3c(n(CCCN4CCCNCC4)c(=O)c2cc1OC)-c1cc2c(cc1C3=O)OCO2`, for which the GI50 in assay [1] is 758 nM; in assay [2], 466 nM; in [3], 476 nM; in assay [4] it was 1340 nM; in assay [5], 2530 nM; in [6], 1210 nM. The GI50 in assay [7] is 1870 nM; in assay [8] it was 2910 nM; in [9], 165 nM; in [10], 2210 nM. Also, the TGI in assay [1] is 11.2 µM; in [2], 4.22 µM; in assay [3] it was 18.5 µM; in [4] it was 8.21 µM; in [5] it was 11.5 µM; in assay [6], 5.06 µM. Moreover, the TGI in [7] was 24.8 µM; in assay [8], 11.1 µM; in [9], 886 nM; in assay [10] it was 10.8 µM.

As for `O=C(N/C=C/C=C/Sc1ccccc1)OCc1ccccc1`, the TGI was 34.2 µM in assay [1]; 29.5 µM in assay [2]; over 100 µM in [3]; 31.6 µM in assay [4]; 35.6 µM in assay [5]; 36.1 µM in [6]. Moreover, the TGI came to 29.7 µM in assay [7], 57 µM in assay [8], 32000 nM in assay [9] and 31.6 µM in assay [10].

On to `Cc1cc(C(O)(c2ccc(Nc3ccccc3)cc2)c2ccc(Nc3ccc(S(=O)(=O)O)cc3)cc2)ccc1N` (stereo not given), for which the GI50 was 1680 nM in assay [1]; 1080 nM in assay [2]; 911 nM in assay [3]; 1260 nM in assay [4]; 989 nM in assay [5]; 1490 nM in assay [6]. Also, the GI50 in assay [7] was 1260 nM; in assay [8], 1310 nM; in assay [9], 975 nM; in assay [10], 782 nM. The TGI was 4.19 µM in assay [1]; 3.57 µM in assay [2]; over 100 µM in assay [3]; 2.58 µM in [4]; 2.28 µM in assay [5]; 3.28 µM in assay [6]. Further, the TGI amounted to 4.44 µM in [7], 3.39 µM in assay [8], 2170 nM in assay [9] and 2.8 µM in assay [10].

On to `O=C1c2cccnc2C(=O)c2c1c(C(=O)OCCc1ccccn1)c1ccccn21`, for which the GI50 in assay [1] was 18.8 nM; in [2], 58.9 nM; in assay [3], 61.2 nM; in assay [4], 33.2 nM; in assay [5], 124 nM; in assay [6], 94.6 nM. Besides, the GI50 in [7] was 120 nM; in assay [8] it was 1130 nM; in assay [9] it was 20.6 nM; in [10], 1450 nM. For the same compound, the TGI in assay [1] is 5.31 µM; in assay [2], 2.12 µM; in [3], over 100 µM; in [4] it was 0.299 µM; in assay [5], 1.4 µM; in assay [6], over 22.4 µM. The TGI in [7] was 0.714 µM; in assay [8] it was 8.39 µM; in [9] it was 1120 nM; in assay [10] it was 3.16 µM.

For `NCCCNc1nc2ccc(Cl)cc2c2c(=O)c3cc(F)ccc3sc12`, the GI50 is 4100 nM in assay [1]; 3240 nM in [2]; 1740 nM in [3]; 13600 nM in [4]; 2950 nM in assay [5]; 1770 nM in [6]. For the same compound, the GI50 is 2260 nM in assay [7], 4300 nM in [8], 1570 nM in assay [9] and 2710 nM in assay [10]. The TGI in assay [1] was found to be 18.2 µM; in assay [2] it was 15.1 µM; in assay [3], 3.73 µM; in assay [4], 30.2 µM; in assay [5] it was 12.3 µM; in assay [6], 3.43 µM. Further, the TGI in assay [7] is 5.67 µM; in assay [8], 18 µM; in assay [9], 2950 nM; in assay [10] it was 8.91 µM.

Consider `Oc1ccc(Cc2ccc(O)c(C3CC(c4ccc(Cl)cc4)=NN3)c2)cc1C1CC(c2ccc(Cl)cc2)=NN1` (stereo not given), for which the GI50 is 3320 nM in assay [1]; 2870 nM in [2]; 2510 nM in assay [3]; 2810 nM in assay [4]; 3480 nM in [5]; 3340 nM in assay [6]. Further, the GI50 was 2560 nM in assay [7], 2970 nM in assay [8], 2220 nM in [9] and 4170 nM in assay [10]. Further, the TGI in assay [1] is 27.2 µM; in assay [2], over 42.4 µM; in [3], over 100 µM; in assay [4], 11.5 µM; in assay [5], over 38.8 µM; in assay [6] it was over 67.8 µM. The TGI in assay [7] is 9.88 µM; in assay [8], over 44.6 µM; in assay [9], 12000 nM; in assay [10], 23.9 µM.

In the case of `CCCCCCc1cc2cc(-c3csc(/C=C/c4ccccc4)n3)c(=O)oc2cc1O`, the GI50 was 11600 nM in assay [1]; 2790 nM in assay [2]; 6130 nM in assay [3]; 19300 nM in assay [4]; 3710 nM in assay [5]; 4420 nM in [6]. The GI50 in [7] was 3930 nM; in assay [8], 3560 nM; in assay [9], 3290 nM; in [10], over 100000 nM. The TGI was determined as 28.9 µM in [1]; 9.55 µM in assay [2]; 80.3 µM in assay [3]; 49.3 µM in assay [4]; 15.1 µM in assay [5]; 16.4 µM in [6]. The TGI in assay [7] was 17.9 µM; in assay [8], 13.7 µM; in assay [9], 12800 nM; in assay [10], over 100 µM.
